Results on nine molecules are retold here after patent US20250170266A1 (ZYMEWORKS BC INC., priority 2022, published 2025).

Holding throughout (type): cell-based
The target of one experiment is T1, mTLR7 (Mus musculus, UniProt P58681).
T1 construct: host or cells: HEK-Blue mTLR7 reporter cells (HEK293-derived, own knowledge)
T1 sequence (P58681 27-1050): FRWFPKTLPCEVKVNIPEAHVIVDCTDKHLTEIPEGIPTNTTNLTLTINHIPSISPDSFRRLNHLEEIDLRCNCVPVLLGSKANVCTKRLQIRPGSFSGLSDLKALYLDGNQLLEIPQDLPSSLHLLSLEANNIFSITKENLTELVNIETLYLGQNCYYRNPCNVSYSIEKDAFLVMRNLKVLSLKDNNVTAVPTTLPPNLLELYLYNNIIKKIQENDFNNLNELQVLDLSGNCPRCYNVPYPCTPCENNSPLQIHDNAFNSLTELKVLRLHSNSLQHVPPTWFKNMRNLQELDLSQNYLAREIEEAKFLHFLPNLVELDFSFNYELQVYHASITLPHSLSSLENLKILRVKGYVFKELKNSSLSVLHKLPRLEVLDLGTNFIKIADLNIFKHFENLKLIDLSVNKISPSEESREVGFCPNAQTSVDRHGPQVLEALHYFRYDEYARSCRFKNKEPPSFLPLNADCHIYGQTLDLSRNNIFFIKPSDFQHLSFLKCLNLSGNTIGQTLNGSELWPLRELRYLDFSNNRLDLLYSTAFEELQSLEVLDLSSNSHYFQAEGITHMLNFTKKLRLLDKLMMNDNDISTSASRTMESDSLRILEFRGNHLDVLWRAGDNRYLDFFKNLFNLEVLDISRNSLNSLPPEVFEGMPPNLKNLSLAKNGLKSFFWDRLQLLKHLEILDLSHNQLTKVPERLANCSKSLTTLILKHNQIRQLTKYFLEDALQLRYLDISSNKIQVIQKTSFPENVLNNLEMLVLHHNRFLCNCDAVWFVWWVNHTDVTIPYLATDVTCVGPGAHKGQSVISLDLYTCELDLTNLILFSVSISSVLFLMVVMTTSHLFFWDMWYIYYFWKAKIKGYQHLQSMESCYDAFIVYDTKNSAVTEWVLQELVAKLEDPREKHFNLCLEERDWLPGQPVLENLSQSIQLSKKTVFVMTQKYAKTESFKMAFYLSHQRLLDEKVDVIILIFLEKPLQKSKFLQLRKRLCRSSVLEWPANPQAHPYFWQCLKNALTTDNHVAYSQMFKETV
The experiment can be described thus: Reporter Gene Assay (RGA), HEK-Blue mTLR7 reporter cells, SEAP readout. The following applies: overnight incubation, SEAP absorbance 620 nm. A digest of the protocol:
(§1)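 HEK-Blue reporter cells expressing human or mouse TLR7 (1.5×10^4 cells) were treated with an 11-point, 4-fold compound titration from 15 pM in HEK-Blue Detection medium. Incubation was overnight at 37° C with 5% CO2. Secreted embryonic alkaline phosphatase was read as absorbance at 620 nm.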
(Reporter assays use an easily measured gene product as a stand-in for the process of interest.)

The next experiment deals with Mouse splenocytes. The experiment can be described thus: Mouse Splenocyte Assay, cytokine release (HTRF). The following applies: Splenocyte, 24 hours, mIL6 in supernatant, read-out: Splenocyte IL6 EC50. A digest of the protocol:
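Splenocytes from female balb/c nude mice, thawed, 100,000 per well in RPMI + 10% FBS. Exposed for 24 h at 37 °C to a 4-fold 11-point compound titration from 15 μM; supernatant mIL6 and mTNFα measured by HTRF.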
On the technique in general: In TR-FRET formats the signal depends on donor and acceptor labels being close together.

The next experiment concerns the target T2, hTLR7 (Homo sapiens, UniProt Q9NYK1).
T2 construct: host or cells: HEK-Blue hTLR7 reporter cells (HEK293-derived, own knowledge)
T2 sequence (Q9NYK1 27-1049): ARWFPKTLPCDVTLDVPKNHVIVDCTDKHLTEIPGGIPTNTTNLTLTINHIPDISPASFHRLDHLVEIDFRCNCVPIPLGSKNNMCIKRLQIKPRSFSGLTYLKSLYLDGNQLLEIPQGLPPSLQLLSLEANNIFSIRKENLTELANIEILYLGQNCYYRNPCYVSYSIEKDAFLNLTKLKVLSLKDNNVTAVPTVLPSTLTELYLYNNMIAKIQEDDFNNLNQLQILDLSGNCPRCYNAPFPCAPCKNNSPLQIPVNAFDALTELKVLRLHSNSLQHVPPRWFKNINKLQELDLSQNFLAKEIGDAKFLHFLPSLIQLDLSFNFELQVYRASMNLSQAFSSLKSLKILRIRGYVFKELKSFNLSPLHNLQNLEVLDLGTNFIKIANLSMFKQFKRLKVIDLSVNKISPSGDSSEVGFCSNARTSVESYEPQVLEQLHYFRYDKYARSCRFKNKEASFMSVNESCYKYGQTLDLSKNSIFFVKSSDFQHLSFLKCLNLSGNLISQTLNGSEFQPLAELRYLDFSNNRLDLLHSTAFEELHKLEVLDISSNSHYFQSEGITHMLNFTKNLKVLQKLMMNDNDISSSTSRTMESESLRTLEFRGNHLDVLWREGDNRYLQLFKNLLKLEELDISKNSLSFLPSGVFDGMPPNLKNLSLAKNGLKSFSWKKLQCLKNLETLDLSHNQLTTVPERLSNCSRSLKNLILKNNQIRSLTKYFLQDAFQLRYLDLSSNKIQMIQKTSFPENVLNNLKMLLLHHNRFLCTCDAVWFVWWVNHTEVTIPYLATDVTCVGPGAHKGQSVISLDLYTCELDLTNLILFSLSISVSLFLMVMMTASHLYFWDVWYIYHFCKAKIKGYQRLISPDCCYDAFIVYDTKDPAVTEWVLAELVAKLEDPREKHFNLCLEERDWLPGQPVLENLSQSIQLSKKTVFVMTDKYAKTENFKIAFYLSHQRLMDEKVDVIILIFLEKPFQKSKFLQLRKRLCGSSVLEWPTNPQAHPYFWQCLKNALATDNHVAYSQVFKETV
The experiment can be described thus: Reporter Gene Assay (RGA), HEK-Blue hTLR7 reporter cells, SEAP readout. Particulars: overnight incubation, SEAP absorbance 620 nm. A digest of the protocol: as §1

The test system of experiment [1] is Human peripheral blood mononuclear cells (PBMCs). The experiment in a line: Human PBMC Assay, cytokine release (HTRF). Particulars: PBMC, 24 hours. A digest of the protocol:
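Cryopreserved human PBMCs, rested overnight with 10 ng/ml hIL3, then 300,000 cells/well treated 24 h at 37° C with compound (4-fold, 11-point titration from 15 μM) in RPMI+10% FBS. Supernatant hIL6, hTNFα and hIFNα measured by HTRF; growth medium as negative control.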

The mark [2] stands for this setting: hIFNα in supernatant, EC50 values approximated and divided into groups, read-out: PBMC IFNa EC50.
Setting [3] is: hIL6 in supernatant, read-out: PBMC IL6 EC50.

Like-named read-outs stand apart in the source and are kept apart here.

Regarding `CCCCCNc1nc(N)c2nc(O)n(Cc3ccc(CNC4CCNCC4)cc3)c2n1` [Compound 194, 6-amino-2-(pentylamino)-9-(4-((piperidin-4-ylamino)methyl)benzyl)-9H-purin-8-ol], the EC50 at mTLR7 was 35.9 nM; in the experiment with Mouse splenocytes, 1390 nM; at hTLR7, 311 nM; in experiment [1] (setting [2]) it was 1 to 10 nM; in experiment [1] (setting [3]), 1100 nM.
In the case of `CCOc1nc(N)c2nc(O)n(Cc3ccc(CNCc4ccc(CN(CC(=O)O)CC(=O)O)cc4)cc3OC)c2n1` [Compound 151, 2,2′-((4-(((4-((6-amino-2-ethoxy-8-hydroxy-9H-purin-9-yl)methyl)-3-methoxy-benzyl)amino)methyl)benzyl)azanediyl)diacetic Acid], the EC50 is 125 nM at mTLR7; 68.8 nM in the experiment on Mouse splenocytes; 12.1 nM at hTLR7; above 10 nM in experiment [1] (setting [2]); 59.2 nM in experiment [1] (setting [3]).
As for `CCCCOc1nc(N)c2nc(O)n(Cc3ccc(CN4CCC(CN)CC4)cc3OC)c2n1` [Compound 156, 6-amino-9-(4-((4-(aminomethyl)piperidin-1-yl)methyl)-2-methoxybenzyl)-2-butoxy-9H-purin-8-ol], the EC50 at mTLR7 is 0.3 nM; with Mouse splenocytes, 2.5 nM; on hTLR7, 0.3 nM; in experiment [1] (setting [2]), above 10 nM.
Take `CCOc1nc(N)c2nc(O)n(Cc3ccc(CNCCCCCC(=O)O)cc3OC)c2n1` [Compound 115, 6-((4-((6-amino-2-ethoxy-8-hydroxy-9H-purin-9-yl)methyl)-3-methoxybenzyl)-amino)hexanoic Acid]: the EC50 was 1600 nM at mTLR7; 3240 nM in the experiment on Mouse splenocytes; 277 nM at hTLR7; above 10 nM in experiment [1] (setting [2]); 2810 nM in experiment [1] (setting [3]).
Turning to `CCCCOc1nc(N)c2nc(O)n(Cc3ccc(N4CCC5(CCNCC5)CC4)cc3OC)c2n1` [Compound 171, 6-amino-2-butoxy-9-(2-methoxy-4-(3,9-diazaspiro[5.5]undecan-3-yl)benzyl)-9H-purin-8-ol], the EC50 on mTLR7 was 1.1 nM; with Mouse splenocytes, 8.9 nM; on hTLR7, below 0.1 nM; in experiment [1] (setting [2]), above 10 nM; in experiment [1] (setting [3]) it was 1550 nM.
As to `CCCCOc1nc(N)c2nc(O)n(Cc3ccc(CCCN4CCC(N)CC4)cc3OC)c2n1` [Compound 172, 6-amino-9-(4-(3-(4-aminopiperidin-1-yl)propyl)-2-methoxybenzyl)-2-butoxy-9H-purin-8-ol], the EC50 on mTLR7 was below 0.1 nM; in the experiment with Mouse splenocytes it was 2.1 nM; at hTLR7 it was below 0.1 nM; in experiment [1] (setting [2]), above 10 nM.
`CCOc1nc(N)c2nc(O)n(Cc3ccc(CN4CCC(C5CCNCC5)CC4)cc3OC)c2n1` [Compound 138, 9-(4-([4,4′-bipiperidin]-1-ylmethyl)-2-methoxybenzyl)-6-amino-2-ethoxy-9H-purin-8-ol]: the EC50 on mTLR7 was 243 nM; in the experiment on Mouse splenocytes, 186 nM; on hTLR7, 17.2 nM; in experiment [1] (setting [2]) it was above 10 nM; in experiment [1] (setting [3]), 130 nM.
The like results for `CCOc1nc(N)c2nc(O)n(Cc3ccc(CN4CCNCC4)cc3OC)c2n1` [Compound 100, 6-amino-2-ethoxy-9-(2-methoxy-4-(piperazin-1-ylmethyl)benzyl)-9H-purin-8-ol] were, in that order, 77.9 nM, 2940 nM, 6.3 nM, 1 to 10 nM and 240 nM.
On the same counts, the results for `CCCN(CCC)Cc1ccc(CNCc2ccc(Cn3c(O)nc4c(N)nc(OCC)nc43)c(OC)c2)cc1` [Compound 141, 6-amino-9-(4-(((4-((dipropylamino)methyl)benzyl)amino)methyl)-2-methoxy-benzyl)-2-ethoxy-9H-purin-8-ol] are 1 nM, 1.3 nM, 0.1 nM, below 0.1 nM and 9290 nM.

One may read the EC50 as the concentration at which the effect is half-maximal.
